# Measurements: ChEMBL document CHEMBL1681651, “A broad spectrum anticancer nucleoside with selective toxicity against human colon cells in vitro” (2011)
# Key:
# Assay type in all cases: functional
# [1] = system: NCI-H322M; assay: Growth inhibition of human NCI-H322M cells assessed as cell growth at 1 mM after 48 hrs by SRB assay; conditions: read-out: Activity
# [2] = system: RXF 393; assay: Growth inhibition of human RXF393 cells assessed as cell growth at 1 uM after 48 hrs by SRB assay; conditions: RXF 393, 48 h, read-out: Activity
# [3] = system: SF-295; assay: Growth inhibition of human SF295 cells assessed as cell growth at 100 uM after 48 hrs by SRB assay; conditions: SF-295, 48 h, read-out: Activity
# [4] = system: SN12C; assay: Growth inhibition of human SN12C cells after 48 hrs by […] growth inhibition assay
# [5] = system: MCF7; assay: Growth inhibition of human MCF7 cells after 48 hrs by […] growth inhibition assay; conditions: MCF7, 48 h
# [6] = system: Malme-3M; assay: Growth inhibition of human MALME-3M cells assessed as cell growth at 1 uM after 48 hrs by SRB assay; conditions: read-out: Activity
# [7] = system: UACC-257; assay: Growth inhibition of human UACC257 cells assessed as cell growth at 1 uM after 48 hrs by SRB assay; conditions: UACC-257, 48 h, read-out: Activity
# [8] = system: CAKI-1; assay: Growth inhibition of human Caki1 cells assessed as cell growth at 0.1 uM after 48 hrs by SRB assay; conditions: CAKI-1, 48 h, read-out: Activity
# [9] = system: MDA-MB-468; assay: Growth inhibition of human MDA-MB-468 cells after 48 hrs by […] growth inhibition assay; conditions: MDA-MB-468, 48 h
# [10] = system: IGROV-1; assay: Growth inhibition of human IGROV1 cells assessed as cell growth at 1 uM after 48 hrs by SRB assay; conditions: IGROV-1, 48 h, read-out: Activity
# [11] = system: EKVX; assay: Growth inhibition of human EKVX cells assessed as cell growth at 10 uM after 48 hrs by SRB assay; conditions: read-out: Activity
# [12] = system: SK-OV-3; assay: Growth inhibition of human SKOV3 cells after 48 hrs by […] growth inhibition assay; conditions: SK-OV-3, 48 h
# [13] = system: NCI-H522; assay: Growth inhibition of human NCI-H522 cells assessed as cell growth at 10 uM after 48 hrs by SRB assay; conditions: NCI-H522, 48 h, read-out: Activity
# [14] = system: OVCAR-3; assay: Growth inhibition of human OVCAR3 cells assessed as cell growth at 100 uM after 48 hrs by SRB assay; conditions: OVCAR-3, 48 h, read-out: Activity
# [15] = system: HCT-15; assay: Growth inhibition of human HCT15 cells assessed as cell growth at 100 uM after 48 hrs by SRB assay; conditions: HCT-15, 48 h, read-out: Activity
# [16] = system: CCRF-CEM; assay: Growth inhibition of human CCRF-CEM cells assessed as cell growth at 100 uM after 48 hrs by SRB assay; conditions: read-out: Activity
# [17] = system: HCC 2998; assay: Growth inhibition of human HCC2998 cells assessed as cell growth at 1 mM after 48 hrs by SRB assay; conditions: HCC 2998, 48 h, read-out: Activity
# [18] = system: SF-268; assay: Growth inhibition of human SF268 cells assessed as cell growth at 1 mM after 48 hrs by SRB assay; conditions: SF-268, 48 h, read-out: Activity
# [19] = system: HCT-15; assay: Growth inhibition of human HCT15 cells assessed as cell growth at 10 uM after 48 hrs by SRB assay; conditions: HCT-15, 48 h, read-out: Activity
# [20] = system: LOX IMVI; assay: Growth inhibition of human LOXIMVI cells assessed as cell growth at 100 uM after 48 hrs by SRB assay; conditions: read-out: Activity
# [21] = system: UACC-62; assay: Growth inhibition of human UACC62 cells after 48 hrs by […] growth inhibition assay; conditions: UACC-62, 48 h
# [22] = system: SK-OV-3; assay: Growth inhibition of human SKOV3 cells assessed as cell growth at 0.1 uM after 48 hrs by SRB assay; conditions: SK-OV-3, 48 h, read-out: Activity
# [23] = system: NCI-H460; assay: Growth inhibition of human NCI-H460 cells assessed as cell growth at 1 mM after 48 hrs by SRB assay; conditions: NCI-H460, 48 h, read-out: Activity
# [24] = system: OVCAR-5; assay: Growth inhibition of human OVCAR5 cells assessed as cell growth at 0.1 uM after 48 hrs by SRB assay; conditions: OVCAR-5, 48 h, read-out: Activity
# [25] = system: LOX IMVI; assay: Growth inhibition of human LOXIMVI cells assessed as cell growth at 0.1 uM after 48 hrs by SRB assay; conditions: read-out: Activity
# [26] = system: NCI-H460; assay: Growth inhibition of human NCI-H460 cells assessed as cell growth at 0.1 uM after 48 hrs by SRB assay; conditions: NCI-H460, 48 h, read-out: Activity
# [27] = system: 786-0; assay: Growth inhibition of human 786-0 cells assessed as cell growth at 10 uM after 48 hrs by SRB assay; conditions: 786-0, 48 h, read-out: Activity
# [28] = system: OVCAR-3; assay: Growth inhibition of human OVCAR3 cells assessed as cell growth at 0.1 uM after 48 hrs by SRB assay; conditions: OVCAR-3, 48 h, read-out: Activity
# [29] = system: HCC 2998; assay: Growth inhibition of human HCC2998 cells after 48 hrs by […] growth inhibition assay; conditions: HCC 2998, 48 h
# [30] = system: HOP-92; assay: Growth inhibition of human HOP92 cells after 48 hrs by […] growth inhibition assay; conditions: HOP-92, 48 h
# [31] = system: NCI-H226; assay: Growth inhibition of human NCI-H226 cells assessed as cell growth at 1 uM after 48 hrs by SRB assay; conditions: NCI-H226, 48 h, read-out: Activity
# [32] = system: MDA-MB-435; assay: Growth inhibition of human MDA-MB-435 cells assessed as cell growth at 100 uM after 48 hrs by SRB assay; conditions: MDA-MB-435, 48 h, read-out: Activity
# [33] = system: RXF 393; assay: Growth inhibition of human RXF393 cells assessed as cell growth at 10 uM after 48 hrs by SRB assay; conditions: RXF 393, 48 h, read-out: Activity
# [34] = read-out: LC50 (the source's name)
# [35] = read-out: pLC50 (the source's name) (converted)
smiles,measurement,setting,value
CNC(=O)NC[C@H]1O[C@@H](n2cnc3c(NC(=O)Nc4ccccc4)ncnc32)[C@H](O[Si](C)(C)C(C)(C)C)[C@@H]1O[Si](C)(C)C(C)(C)C,growth at 1000 µM,[1],21%
same,growth at 1 µM,[2],73%
same,growth at 100 µM,[3],7%
same,GI50,[4]; read-out: GI50,1.81 µM
same,CC50,[4]; [34],6.29 µM
same,TGI,[4]; read-out: TGI,3.38 µM
same,GI50,[4]; read-out: pGI50 (converted),1.82 µM
same,CC50,[4]; [35],6.31 µM
same,TGI,[4]; read-out: pTGI (converted),3.39 µM
same,GI50,[5]; read-out: GI50,2.69 µM
same,CC50,[5]; [34],> 100 µM
same,TGI,[5]; read-out: TGI,19.3 µM
same,GI50,[5]; read-out: pGI50 (converted),2.69 µM
same,CC50,[5]; [35],> 100 µM
same,TGI,[5]; read-out: pTGI (converted),19.5 µM
same,growth at 1 µM,[6],98%
same,growth at 1 µM,[7],100%
same,growth at 0.1 µM,[8],103%
same,GI50,[9]; read-out: GI50,3.35 µM
same,CC50,[9]; [34],> 100 µM
same,TGI,[9]; read-out: TGI,13.9 µM
same,GI50,[9]; read-out: pGI50 (converted),3.39 µM
same,CC50,[9]; [35],> 100 µM
same,TGI,[9]; read-out: pTGI (converted),13.8 µM
same,growth at 1 µM,[10],99%
same,growth at 10 µM,[11],104%
same,GI50,[12]; read-out: GI50,6.88 µM
same,CC50,[12]; [34],> 100 µM
same,TGI,[12]; read-out: TGI,> 100 µM
same,GI50,[12]; read-out: pGI50 (converted),6.92 µM
same,CC50,[12]; [35],> 100 µM
same,TGI,[12]; read-out: pTGI,> 100 µM
same,growth at 10 µM,[13],90%
same,growth at 100 µM,[14],-39%
same,growth at 100 µM,[15],11%
same,growth at 100 µM,[16],9%
same,growth at 1000 µM,[17],-91%
same,growth at 1000 µM,[18],-45%
same,growth at 10 µM,[19],100%
same,growth at 100 µM,[20],-89%
same,GI50,[21]; read-out: GI50,3.98 µM
same,CC50,[21]; [34],> 100 µM
same,TGI,[21]; read-out: TGI,23.6 µM
same,GI50,[21]; read-out: pGI50 (converted),3.98 µM
same,CC50,[21]; [35],> 100 µM
same,TGI,[21]; read-out: pTGI (converted),23.4 µM
same,growth at 0.1 µM,[22],108%
same,growth at 1000 µM,[23],-75%
same,growth at 0.1 µM,[24],96%
same,growth at 0.1 µM,[25],102%
same,growth at 0.1 µM,[26],104%
same,growth at 10 µM,[27],110%
same,growth at 0.1 µM,[28],111%
same,GI50,[29]; read-out: GI50,2.02 µM
same,CC50,[29]; [34],6.99 µM
same,TGI,[29]; read-out: TGI,3.75 µM
same,GI50,[29]; read-out: pGI50 (converted),2 µM
same,CC50,[29]; [35],6.92 µM
same,TGI,[29]; read-out: pTGI (converted),3.72 µM
same,GI50,[30]; read-out: GI50,1.56 µM
same,CC50,[30]; [34],97.6 µM
same,TGI,[30]; read-out: TGI,5.16 µM
same,GI50,[30]; read-out: pGI50 (converted),1.55 µM
same,CC50,[30]; [35],97.7 µM
same,TGI,[30]; read-out: pTGI (converted),5.13 µM
same,growth at 1 µM,[31],106%
same,growth at 100 µM,[32],9%
same,growth at 10 µM,[33],111%
CNC(=O)NC[C@H]1O[C@@H](n2cnc3c(NC(=O)Nc4ccccc4)ncnc32)[C@H](O[Si](C)(C)C(C)(C)C)[C@@H]1CC(=O)N(C)OC,growth at 1000 µM,[1],73%
same,growth at 1 µM,[2],100%
same,growth at 100 µM,[3],48%
same,GI50,[4]; read-out: GI50,85.3 µM
same,CC50,[4]; [34],> 100 µM
same,TGI,[4]; read-out: TGI,> 100 µM
same,GI50,[4]; read-out: pGI50 (converted),85.1 µM
same,CC50,[4]; [35],> 100 µM
same,TGI,[4]; read-out: pTGI (converted),> 100 µM
same,GI50,[5]; read-out: GI50,5.59 µM
same,CC50,[5]; [34],> 100 µM
same,TGI,[5]; read-out: TGI,> 100 µM
same,GI50,[5]; read-out: pGI50 (converted),5.62 µM
same,CC50,[5]; [35],> 100 µM
same,TGI,[5]; read-out: pTGI (converted),> 100 µM
same,growth at 1 µM,[6],88%
same,growth at 1 µM,[7],103%
same,growth at 0.1 µM,[8],85%
same,CC50,[9]; [34],> 100 µM
same,growth at 1 µM,[10],89%
same,growth at 10 µM,[11],95%
same,GI50,[12]; read-out: GI50,52.7 µM
same,CC50,[12]; [34],> 100 µM
same,TGI,[12]; read-out: TGI,> 100 µM
same,GI50,[12]; read-out: pGI50 (converted),52.5 µM
same,CC50,[12]; [35],> 100 µM
same,TGI,[12]; read-out: pTGI,> 100 µM
same,growth at 10 µM,[13],84%
same,growth at 100 µM,[14],41%
same,growth at 100 µM,[15],40%
same,growth at 100 µM,[16],39%
same,growth at 1000 µM,[17],33%
same,growth at 1000 µM,[18],20%
same,growth at 10 µM,[19],93%
same,growth at 100 µM,[20],43%
same,GI50,[21]; read-out: GI50,41.9 µM
same,CC50,[21]; [34],> 100 µM
same,TGI,[21]; read-out: TGI,> 100 µM
same,GI50,[21]; read-out: pGI50 (converted),41.7 µM
same,CC50,[21]; [35],> 100 µM
same,TGI,[21]; read-out: pTGI (converted),> 100 µM
same,growth at 0.1 µM,[22],96%
same,growth at 1000 µM,[23],25%
same,growth at 0.1 µM,[24],99%
same,growth at 0.1 µM,[25],97%
same,growth at 0.1 µM,[26],96%
same,growth at 10 µM,[27],93%
same,growth at 0.1 µM,[28],95%
same,GI50,[29]; read-out: GI50,30.6 µM
same,CC50,[29]; [34],> 100 µM
same,TGI,[29]; read-out: TGI,> 100 µM
same,GI50,[29]; read-out: pGI50 (converted),30.9 µM
same,CC50,[29]; [35],> 100 µM
same,TGI,[29]; read-out: pTGI (converted),> 100 µM
same,GI50,[30]; read-out: GI50,2.71 µM
same,CC50,[30]; [34],> 100 µM
same,TGI,[30]; read-out: TGI,24.3 µM
same,GI50,[30]; read-out: pGI50 (converted),2.69 µM
same,CC50,[30]; [35],> 100 µM
same,TGI,[30]; read-out: pTGI (converted),24 µM
same,growth at 1 µM,[31],111%
same,growth at 100 µM,[32],51%
same,growth at 10 µM,[33],98%
